We go through 8 compounds from ChEMBL document CHEMBL3608202, “Biarylmethoxy 2-nitroimidazooxazine antituberculosis agents: Effects of proximal ring substitution and linker reversal on metabolism and efficacy” (Bioorg Med Chem Lett, 2015).

The structures appear in SMILES notation. ≈ marks a conversion by molar mass, not a printed value.

The subject of the first data set is Mycobacterium tuberculosis. The data set can be described thus: Antimycobacterial activity against Mycobacterium tuberculosis H37Rv after 8 days by MABA assay. As to conditions: 192 h. The format is functional.
`O=[N+]([O-])c1cn2c(n1)OC[C@@H](OCc1ccc(-c3ccc(OC(F)(F)F)cc3)cc1C(F)(F)F)C2` yielded an MIC90 of 0.65 µM (≈ 0.327 µg/mL).
For the compound `O=[N+]([O-])c1cn2c(n1)OC[C@@H](OCc1ccc(-c3ccc(OC(F)(F)F)cc3)cc1F)C2`, the MIC90 stood at 0.017 µM (≈ 0.00771 µg/mL).
With `O=[N+]([O-])c1cn2c(n1)OCC(COCc1ccc(-c3ccc(C(F)(F)F)cc3)cc1)C2` (stereo not drawn), the MIC90 is 0.49 µM (≈ 0.212 µg/mL).
`O=[N+]([O-])c1cn2c(n1)OCC(COCc1ccc(-c3ccc(OC(F)(F)F)cc3)cc1)C2` (stereo not drawn) showed an MIC90 of 0.3 µM (≈ 0.135 µg/mL).
On to `O=[N+]([O-])c1cn2c(n1)OC[C@@H](OCc1ccc(-c3ccc(C(F)(F)F)cn3)cc1F)C2`, for which the MIC90 turned out to be 0.055 µM (≈ 0.0241 µg/mL).
Same read-out and setting: then `N#Cc1cc(-c2ccc(OC(F)(F)F)cc2)ccc1CO[C@@H]1COc2nc([N+](=O)[O-])cn2C1`, with 0.053 µM (≈ 0.0244 µg/mL); and `O=[N+]([O-])c1cn2c(n1)OCC(COCc1ccc(-c3ccc(F)cc3)cc1)C2` (stereo not drawn), with 0.47 µM (≈ 0.18 µg/mL); and `O=[N+]([O-])c1cn2c(n1)OCC(COc1ccc(-c3ccc(C(F)(F)F)cc3)nc1)C2` (stereo not drawn), with 0.22 µM (≈ 0.0925 µg/mL).

The next data set concerns Mycobacterium tuberculosis. The data set can be described thus: Antimycobacterial activity against Mycobacterium tuberculosis H37Rv after 11 days by LORA assay. The data set is classed as functional. As to conditions: 264 h.
In turn, `O=[N+]([O-])c1cn2c(n1)OC[C@@H](OCc1ccc(-c3ccc(OC(F)(F)F)cc3)cc1C(F)(F)F)C2` showed an MIC90 of 2.4 µM (≈ 1.21 µg/mL).
On the same count and under the same terms, under `O=[N+]([O-])c1cn2c(n1)OC[C@@H](OCc1ccc(-c3ccc(OC(F)(F)F)cc3)cc1F)C2` stands 1.2 µM (≈ 0.544 µg/mL); under `O=[N+]([O-])c1cn2c(n1)OCC(COCc1ccc(-c3ccc(C(F)(F)F)cc3)cc1)C2` (stereo not drawn), > 128 µM.
Still for that read-out and setting: under `O=[N+]([O-])c1cn2c(n1)OCC(COCc1ccc(-c3ccc(OC(F)(F)F)cc3)cc1)C2` (stereo not drawn) stands > 128 µM; under `O=[N+]([O-])c1cn2c(n1)OC[C@@H](OCc1ccc(-c3ccc(C(F)(F)F)cn3)cc1F)C2`, 2.3 µM (≈ 1.01 µg/mL); under `N#Cc1cc(-c2ccc(OC(F)(F)F)cc2)ccc1CO[C@@H]1COc2nc([N+](=O)[O-])cn2C1`, 0.45 µM (≈ 0.207 µg/mL).
Still for that read-out and setting: then `O=[N+]([O-])c1cn2c(n1)OCC(COCc1ccc(-c3ccc(F)cc3)cc1)C2` (stereo not drawn), with 7.9 µM (≈ 3.03 µg/mL).
Consider `O=[N+]([O-])c1cn2c(n1)OCC(COc1ccc(-c3ccc(C(F)(F)F)cc3)nc1)C2` (stereo not drawn), for which the MIC90 was found to be 1.3 µM (≈ 0.546 µg/mL).

System in the next data set: not listed separately
The data set can be described thus: Metabolic stability in human liver microsomes assessed as compound remaining after 1 hr. The format is ADME. Particulars: read-out: Stability.
Turning to `O=[N+]([O-])c1cn2c(n1)OC[C@@H](OCc1ccc(-c3ccc(OC(F)(F)F)cc3)cc1C(F)(F)F)C2`, the remaining at 1 h is 100%.
On to `O=[N+]([O-])c1cn2c(n1)OC[C@@H](OCc1ccc(-c3ccc(OC(F)(F)F)cc3)cc1F)C2`, for which the remaining at 1 h turned out to be 93%.
As for `O=[N+]([O-])c1cn2c(n1)OC[C@@H](OCc1ccc(-c3ccc(C(F)(F)F)cn3)cc1F)C2`, the remaining at 1 h stood at 90%.
Still for that read-out and setting: then `N#Cc1cc(-c2ccc(OC(F)(F)F)cc2)ccc1CO[C@@H]1COc2nc([N+](=O)[O-])cn2C1`, with 91%.

System in a further data set: not listed separately
As to the kind of experiment: Metabolic stability in CD1 mouse liver microsomes assessed as compound remaining after 1 hr. The format is ADME. As to conditions: read-out: Stability.
As to `O=[N+]([O-])c1cn2c(n1)OC[C@@H](OCc1ccc(-c3ccc(OC(F)(F)F)cc3)cc1C(F)(F)F)C2`, the remaining at 1 h stood at 96%.
Regarding `O=[N+]([O-])c1cn2c(n1)OC[C@@H](OCc1ccc(-c3ccc(OC(F)(F)F)cc3)cc1F)C2`, the remaining at 1 h is 85%.
Regarding `O=[N+]([O-])c1cn2c(n1)OC[C@@H](OCc1ccc(-c3ccc(C(F)(F)F)cn3)cc1F)C2`, the remaining at 1 h was 77%.
On to `N#Cc1cc(-c2ccc(OC(F)(F)F)cc2)ccc1CO[C@@H]1COc2nc([N+](=O)[O-])cn2C1`, for which the remaining at 1 h turned out to be 88%.

The next data set deals with Vero. The data set can be described thus: Cytotoxicity against African green monkey Vero cells after 72 hrs. Particulars: Chlorocebus sabaeus. The data set is classed as cell-based.
As for `O=[N+]([O-])c1cn2c(n1)OC[C@@H](OCc1ccc(-c3ccc(OC(F)(F)F)cc3)cc1C(F)(F)F)C2`, the IC50 is > 128 µM.
Still for that read-out and setting: then `O=[N+]([O-])c1cn2c(n1)OC[C@@H](OCc1ccc(-c3ccc(OC(F)(F)F)cc3)cc1F)C2`, with > 128 µM; and `O=[N+]([O-])c1cn2c(n1)OCC(COCc1ccc(-c3ccc(C(F)(F)F)cc3)cc1)C2` (stereo not drawn), with 38 µM.
On the same count and under the same terms, under `O=[N+]([O-])c1cn2c(n1)OCC(COCc1ccc(-c3ccc(OC(F)(F)F)cc3)cc1)C2` (stereo not drawn) stands > 128 µM; under `O=[N+]([O-])c1cn2c(n1)OC[C@@H](OCc1ccc(-c3ccc(C(F)(F)F)cn3)cc1F)C2`, > 128 µM; under `N#Cc1cc(-c2ccc(OC(F)(F)F)cc2)ccc1CO[C@@H]1COc2nc([N+](=O)[O-])cn2C1`, > 128 µM.
Take `O=[N+]([O-])c1cn2c(n1)OCC(COCc1ccc(-c3ccc(F)cc3)cc1)C2` (stereo not drawn): the IC50 was 24 µM.
The same measure, in the same setting: then `O=[N+]([O-])c1cn2c(n1)OCC(COc1ccc(-c3ccc(C(F)(F)F)cc3)nc1)C2` (stereo not drawn), with > 128 µM.

The next data set concerns Mycobacterium tuberculosis. The data set can be described thus: Antimycobacterial activity against Mycobacterium tuberculosis infected in mouse assessed as fold reduction of colony forming units in lungs at 100 mg/kg, po administered for 5 days a week for 3 weeks beginning on day 11 post-infection relative to pretomanid.
Conditions: not given
The format is functional.
Regarding `O=[N+]([O-])c1cn2c(n1)OC[C@@H](OCc1ccc(-c3ccc(OC(F)(F)F)cc3)cc1F)C2`, the Ratio was 33.
Same read-out and setting: then `O=[N+]([O-])c1cn2c(n1)OC[C@@H](OCc1ccc(-c3ccc(C(F)(F)F)cn3)cc1F)C2`, with 51.
The same measure, in the same setting: then `N#Cc1cc(-c2ccc(OC(F)(F)F)cc2)ccc1CO[C@@H]1COc2nc([N+](=O)[O-])cn2C1`, with 2.9.

A further data set deals with Mycobacterium tuberculosis. As to the kind of experiment: Antimycobacterial activity against Mycobacterium tuberculosis infected in mouse assessed as fold reduction of colony forming units in lungs at 100 mg/kg, po administered for 5 days a week for 3 weeks beginning on day 70 post-infection relative to control. The format is functional.
Conditions: not given
For `O=[N+]([O-])c1cn2c(n1)OC[C@@H](OCc1ccc(-c3ccc(OC(F)(F)F)cc3)cc1F)C2`, the Ratio was 2.2.

The test system of the next data set is Plasma. The data set can be described thus: AUC (0 to infinity) in CD1 mouse plasma at 40 mg/kg, po. The format is ADME, organism-based. On the set-up: dose 40 mg/kg, route oral, time infinity. Particulars: in vivo.
`O=[N+]([O-])c1cn2c(n1)OC[C@@H](OCc1ccc(-c3ccc(OC(F)(F)F)cc3)cc1F)C2` gave an AUC of 202 µg/h/mL.

System in the next data set: not listed separately
The data set can be described thus: Cmax in CD1 mouse plasma at 40 mg/kg, po.
Conditions: not given
The format is ADME, organism-based. On the set-up: dose 40 mg/kg, route oral.
Take `O=[N+]([O-])c1cn2c(n1)OC[C@@H](OCc1ccc(-c3ccc(OC(F)(F)F)cc3)cc1F)C2`: the Cmax came to 6700 ng/mL.

System in another data set: not listed separately
As to the kind of experiment: Half life in CD1 mouse plasma at 40 mg/kg, po. The data set is classed as ADME, organism-based.
Conditions: not given
For the compound `O=[N+]([O-])c1cn2c(n1)OC[C@@H](OCc1ccc(-c3ccc(OC(F)(F)F)cc3)cc1F)C2`, the half-life is 22.3 h.

In the next data set the test system is Lung. As to the kind of experiment: AUC (0 to infinity) in CD1 mouse lung at 40 mg/kg, po. The format is ADME, organism-based. More on the design: dose 40 mg/kg, time infinity, route oral. As to conditions: in vivo.
In the case of `O=[N+]([O-])c1cn2c(n1)OC[C@@H](OCc1ccc(-c3ccc(OC(F)(F)F)cc3)cc1F)C2`, the AUC worked out at 549 µg/h/mL.

System in the next data set: not listed separately
The data set can be described thus: Cmax in CD1 mouse lung at 40 mg/kg, po.
Conditions: not given
On the set-up: dose 40 mg/kg, route oral. The data set is classed as ADME, organism-based.
As to `O=[N+]([O-])c1cn2c(n1)OC[C@@H](OCc1ccc(-c3ccc(OC(F)(F)F)cc3)cc1F)C2`, the highest level (Cmax) was 12100 ng/mL.

System in another data set: not listed separately
As to the kind of experiment: Half life in CD1 mouse lung at 40 mg/kg, po. The format is ADME, organism-based.
Conditions: not given
As for `O=[N+]([O-])c1cn2c(n1)OC[C@@H](OCc1ccc(-c3ccc(OC(F)(F)F)cc3)cc1F)C2`, the half-life is 28.1 h.

System in the next data set: not listed separately
As to the kind of experiment: Ratio of AUC (0 to infinity) in CD1 mouse lung to AUC (0 to infinity) in CD1 mouse plasma at 40 mg/kg, po. The data set is classed as ADME, organism-based. As to conditions: read-out: Ratio AUC.
On to `O=[N+]([O-])c1cn2c(n1)OC[C@@H](OCc1ccc(-c3ccc(OC(F)(F)F)cc3)cc1F)C2`, for which the Kp is 2.7.
